Consider four compounds from patent publication US7314716B2, “Gustducin γ subunit materials and methods” (Mount Sinai School of Medicine, priority 1999, dated 2008).

Assay [1] concerns murine taste tissue. Kind of assay: Rapid time course quench-flow IP3 generation in murine taste tissue. The assay is classed as biochemical, mouse. The following applies: addition to murine taste tissue homogenate supernatant. Here is the method: To confirm that gustducin γ subunit does indeed function in taste transduction rapid time course quench-flow experiments were carried out essentially as described in Tarelius et al., pp. 193–202 in Spielman et al., Eds., Experimental Cell Biology of Taste and Olfaction. Current Techniques & Protocols, CRC Press, Boca Raton (1995). […] Furthermore, it has been shown that the denatonium response depends upon a novel phospholipase C (PLC) β2 isotype specifically expressed in taste receptor cells.
Tongues were excised from 6 to 8 week old female SWR mice, and lingual papillae removed. One vallate and two foliate papillae and nongustatory control tissue from the dorsal eminence of the peeled epithelium were placed in ice-cold MOPS buffer pH 6.9 (50 mM MOPS, 100 mM NaCl, 0.081 mM CaCl2 and 2.5 mM MgCl2), containing 10 mM EGTA, 1 mM DTT, and a protease inhibitor cocktail [1 mg/ml, specific for serine, cysteine, aspartic and metallo-proteinases (Sigma)]. Tissue collected from twenty-five tongues was homogenized in MOPS-EGTA buffer pH 6.9, without the enzyme inhibitors, and centrifuged (1000×g for 20 min. at 4° C.). The recovered supernatant (at a protein concentration of about 30 μg/ml), was used for rapid kinetic experiments. […]

Assay [2] has as its system murine taste tissue. The following applies: shown previously; cited from earlier work.
The subject of the next assay is gustducin α subunit. Put plainly: Trypsin sensitivity assay of gustducin α subunit activation by denatonium-stimulated taste membranes. The format is biochemical. The protocol: To confirm this idea, yet another trypsin sensitivity assay was utilized.
Five μl aliquots of in vitro translated gustducin α subunit were incubated with 5 μg of purified taste membranes or control non-taste membranes, 0.1 mM GDP, 1 μM GTPγS, with or without 5 mM of the bitter compound denatonium, plus a 10 μl aliquot of cotranslated β1/gustducin γ subunit or β2/γ2 dimer, or 10 μl rabbit reticulocyte lysate (the minus βγ control) for 1 hour at 30° C., followed by digestion with trypsin as described in Ming et al., Proc. Natl. Acad. Sci. USA, 95: 8933–8938 (1998).

[3] abbreviates: taste receptor-containing membranes stimulated by 5 mM denatonium.

For `CC[N+](CC)(CC(=O)Nc1c(C)cccc1C)Cc1ccccc1` [denatonium benzoate], the “generation of IP3 relative to basal level” value with murine taste tissue [1] was “slightly more than twice the basal level”. Besides, the “generation of IP3 in control non-taste tissue” value in the assay with murine taste tissue [2] is listed as “not in control non-taste tissue”.

Turning to “β2/γ2: cotranslated β2/γ2 dimer [reference compound]”, in the assay on gustducin α subunit (setting [3]), the “enhancement of activation of gustducin α subunit” value is given as “did not enhance activation”.

Take “β1/gustducin γ subunit: cotranslated β1/gustducin γ subunit dimer”: the “enhancement of activation of gustducin α subunit” value with gustducin α subunit (control non-taste membranes) is reported as “did not enhance activation”; in the assay with gustducin α subunit (setting [3]) it was “enhanced activation”.

Take `CC(=O)OC[C@H]1O[C@@](COC(C)=O)(O[C@H]2O[C@H](COC(C)=O)[C@@H](OC(C)=O)[C@H](OC(C)=O)[C@H]2OC(C)=O)[C@@H](OC(C)=O)[C@@H]1OC(C)=O` [sucrose octa-acetate]: in the assay with murine taste tissue [2], the “generation of IP3 in control non-taste tissue” value was “not in control non-taste tissue”.
